Test results reported in the NIST ThermoML archive (doi:10.1016/j.tca.2005.05.013).
± gives the expanded uncertainty stated by the source.

Conditions: Crystal; DTA

Structure (SMILES) | Normal melting temperature
Nc1ccc2[nH]c3ccc(N)cc3c2c1 [3,6-diamino-9H-carbazole] | 241.00 ± 10 °C
O=[N+]([O-])c1ccc2[nH]c3ccc([N+](=O)[O-])cc3c2c1 [3,6-dinitro-9H-carbazole] | 296.50 ± 10 °C
